Results from patent US20100120763A1, “IMIDAZO[5,1-C][1,2,4]BENZOTRIAZINE DERIVATIVES AS INHIBITORS OF PHOSPHODIESTERASES” (priority 2008, published 2010).
Where two headings read alike, the source gives them in different places.

Columns and labels:
[1] = target: T1, PDE10A (Homo sapiens, UniProt Q9Y233); test: Inhibition of recombinant PDE10A (baculovirus/SF21 system), [3H]-cAMP SPA; type: biochemical
T1 construct: made in house; host or cells: SF21 insect cells (baculovirus)

[2] = target: T2, PDE2A (Homo sapiens, UniProt O00408); test: Inhibition of recombinant PDE2A (expressed in baculovirus/SF21-cells), [3H]-cAMP SPA; type: biochemical
T2 construct: made in house; host or cells: SF21 insect cells (baculovirus)
T2 sequence (O00408 whole entry): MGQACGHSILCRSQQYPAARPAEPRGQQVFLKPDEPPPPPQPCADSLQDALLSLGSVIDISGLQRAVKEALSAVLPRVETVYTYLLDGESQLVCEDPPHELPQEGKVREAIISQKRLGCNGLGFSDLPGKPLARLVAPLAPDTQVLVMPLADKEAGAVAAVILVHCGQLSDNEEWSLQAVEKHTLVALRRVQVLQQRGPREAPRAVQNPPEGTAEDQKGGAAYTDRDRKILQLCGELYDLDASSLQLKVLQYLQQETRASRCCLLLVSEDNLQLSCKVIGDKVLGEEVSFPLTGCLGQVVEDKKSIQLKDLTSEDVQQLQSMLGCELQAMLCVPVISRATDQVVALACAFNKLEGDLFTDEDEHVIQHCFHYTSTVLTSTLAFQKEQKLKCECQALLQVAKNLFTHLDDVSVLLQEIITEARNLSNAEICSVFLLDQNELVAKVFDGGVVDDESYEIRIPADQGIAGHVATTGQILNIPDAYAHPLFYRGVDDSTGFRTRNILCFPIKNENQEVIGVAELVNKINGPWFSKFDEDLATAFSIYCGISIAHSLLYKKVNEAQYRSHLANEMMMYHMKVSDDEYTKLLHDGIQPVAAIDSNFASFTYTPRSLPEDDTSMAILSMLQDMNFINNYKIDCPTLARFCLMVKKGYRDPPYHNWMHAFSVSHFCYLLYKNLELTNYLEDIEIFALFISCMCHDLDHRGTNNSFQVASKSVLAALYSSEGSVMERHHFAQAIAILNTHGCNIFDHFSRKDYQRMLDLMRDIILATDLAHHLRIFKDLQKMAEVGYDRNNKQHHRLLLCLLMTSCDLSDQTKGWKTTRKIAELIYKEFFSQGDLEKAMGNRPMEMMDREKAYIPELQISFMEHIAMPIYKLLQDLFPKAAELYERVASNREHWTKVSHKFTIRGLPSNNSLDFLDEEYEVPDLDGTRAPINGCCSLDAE
Summary of the method: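 Membrane fraction of baculovirus/SF21-expressed PDE2A was incubated 30 min at 37° C in Tris-HCl/MgCl2 pH 7.4 with 0.5 μM [3H]-cAMP and 1000 nM cGMP as activator. Product was detected by SPA scintillation. IC50 used a Hill-plot 2-parameter model.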

[3] = recombinant PDE10A1, cytosolic, 0.1 μM [3H]-cAMP, 37° C., 30 minutes, read-out: PDE10A IC50

T1 sequence (Q9Y233 1-779 isoform Q9Y233-1): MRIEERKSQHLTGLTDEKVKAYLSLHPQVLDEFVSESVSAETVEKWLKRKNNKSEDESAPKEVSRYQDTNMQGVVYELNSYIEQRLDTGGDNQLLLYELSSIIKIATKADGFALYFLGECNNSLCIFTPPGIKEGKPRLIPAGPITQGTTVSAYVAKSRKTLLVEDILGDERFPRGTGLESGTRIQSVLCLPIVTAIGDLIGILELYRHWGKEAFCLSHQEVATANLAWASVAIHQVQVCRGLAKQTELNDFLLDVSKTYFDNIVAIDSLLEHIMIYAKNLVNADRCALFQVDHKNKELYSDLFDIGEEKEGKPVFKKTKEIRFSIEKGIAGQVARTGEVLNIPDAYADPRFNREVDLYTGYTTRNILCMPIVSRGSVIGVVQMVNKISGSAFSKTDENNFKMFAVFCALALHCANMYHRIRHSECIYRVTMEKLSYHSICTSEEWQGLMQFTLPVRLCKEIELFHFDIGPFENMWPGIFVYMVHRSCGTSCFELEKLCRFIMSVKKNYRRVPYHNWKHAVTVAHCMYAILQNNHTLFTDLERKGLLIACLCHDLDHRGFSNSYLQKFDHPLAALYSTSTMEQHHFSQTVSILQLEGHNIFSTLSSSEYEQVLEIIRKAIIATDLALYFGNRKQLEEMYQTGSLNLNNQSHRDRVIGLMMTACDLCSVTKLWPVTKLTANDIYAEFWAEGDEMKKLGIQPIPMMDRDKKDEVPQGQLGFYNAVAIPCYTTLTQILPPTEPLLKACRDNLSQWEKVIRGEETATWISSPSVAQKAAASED

SMILES: CCCc1nc(C)c2nnc3ccc(F)cc3n12 [Example 1, 8-fluoro-3-methyl-1-propyl-imidazo[5,1-c][1,2,4]benzotriazine]
- melting point: 124.5 to 126.5 °C
- IC50 [1, 3]: 626 nM
- IC50 [2]: 716 nM

SMILES: CCCc1nc(C)c2nnc3cc(OC)ccc3n12 [Example 2, 7-methoxy-3-methyl-1-propyl-imidazo[5,1-c][1,2,4]benzotriazine]
- melting point: 159 to 162 °C
- IC50 [1, 3]: 401 nM
- IC50 [2]: 546 nM

SMILES: CCc1nc(C)c2nnc3ccc(F)cc3n12 [Example 3, 1-ethyl-8-fluoro-3-methyl-imidazo[5,1-c][1,2,4]benzotriazine]
- melting point: 187 to 190 °C
- IC50 [1, 3]: 3900 nM
- IC50 [2]: 3760 nM

SMILES: Cc1nc(C2CCCCC2)n2c1nnc1ccc(F)cc12 [Example 4, 1-cyclohexyl-8-fluoro-3-methyl-imidazo[5,1-c][1,2,4]benzotriazine]
- melting point: 246 to 250 °C (dec.)
- IC50 [1, 3]: 228 nM
- IC50 [2]: 541 nM

SMILES: COc1ccc2nnc3c(C)nc(-c4cc(Cl)ccc4Cl)n3c2c1 [Example 5, 1-(2,5-dichlorophenyl)-8-methoxy-3-methyl-imidazo[5,1-c][1,2,4]benzotriazine]
- melting point: 165 to 168 °C
- IC50 [1, 3]: 23.7 nM
- IC50 [2]: 3.31 nM

SMILES: Cc1nc(-c2cc(Cl)ccc2Cl)n2c1nnc1cc(F)ccc12 [Example 6, 1-(2,5-dichlorophenyl)-7-fluoro-3-methyl-imidazo[5,1-c][1,2,4]benzotriazine]
- melting point: 186 to 190 °C
- IC50 [1, 3]: 761 nM
- IC50 [2]: 29.8 nM

SMILES: COc1ccc2c(c1)nnc1c(C)nc(-c3cc(Cl)ccc3Cl)n12 [Example 7, 1-(2,5-dichlorophenyl)-7-methoxy-3-methyl-imidazo[5,1-c][1,2,4]benzotriazine]
- melting point: 144 to 147 °C
- IC50 [1, 3]: 258 nM
- IC50 [2]: 17.8 nM

SMILES: Cc1nc(-c2cc(Cl)ccc2Cl)n2c1nnc1ccc(F)cc12 [Example 8, 1-(2,5-dichlorophenyl)-8-fluoro-3-methylbenzo[e]imidazo[5,1-c][1,2,4]triazine]
- melting point: 146 to 149 °C
- IC50 [1, 3]: 176 nM
- IC50 [2]: 36.5 nM

SMILES: CCC(C)c1nc(C)c2nnc3ccc(F)cc3n12 (stereo not drawn) [Example 10, 1-sec-butyl-8-fluoro-3-methylbenzo[e]imidazo[5,1-c][1,2,4]triazine]
- melting point: 169 to 171.5 °C
- IC50 [1]: 410 nM
- IC50 [2]: 1530 nM

SMILES: Cc1ncn2c1nnc1ccc(F)cc12 [Example 11, 8-fluoro-3-methylbenzo[e]imidazo[5,1-c][1,2,4]triazine]
- melting point: 230 °C
- IC50 [1, 3]: > 10000 nM
- IC50 [2]: > 10000 nM

SMILES: Cc1ncccc1-c1nc(C)c2nnc3ccc(F)cc3n12 [Example 12, 8-fluoro-3-methyl-1-(2-methylpyridin-3-yl)benzo[e]imidazo[5,1-c][1,2,4]triazine]
- melting point: 207 to 210 °C
- IC50 [1, 3]: 780 nM
- IC50 [2]: 187 nM

SMILES: Cc1nc(-c2ccccc2Cl)n2c1nnc1ccc(F)cc12 [Example 13, 1-(2-chlorophenyl)-8-fluoro-3-methylbenzo[e]imidazo[5,1-c][1,2,4]triazine]
- melting point: 189 to 192 °C
- IC50 [1, 3]: 86 nM
- IC50 [2]: 32.6 nM

SMILES: Cc1nc(-c2cccc(Cl)c2Cl)n2c1nnc1ccc(F)cc12 [Example 14, 1-(2,3-dichlorophenyl)-8-fluoro-3-methylbenzo[e]imidazo[5,1-c][1,2,4]triazine]
- melting point: 193 to 196 °C
- IC50 [1, 3]: 308 nM
- IC50 [2]: 371 nM

SMILES: Cc1nc(-c2ccnn2C)n2c1nnc1ccc(F)cc12 [Example 15, 8-fluoro-3-methyl-1-(1-methyl-1H-pyrazol-5-yl)benzo[e]imidazo[5,1-c][1,2,4]triazine]
- melting point: 217 to 220 °C
- IC50 [1, 3]: > 5000 nM
- IC50 [2]: > 1000 nM

SMILES: COc1ccccc1-c1nc(C)c2nnc3ccc(F)cc3n12 [Example 16, 8-fluoro-1-(2-methoxyphenyl)-3-methylbenzo[e]imidazo[5,1-c][1,2,4]triazine]
- melting point: 196 to 198 °C
- IC50 [1, 3]: 456 nM
- IC50 [2]: 351 nM

SMILES: Cc1ccccc1-c1nc(C)c2nnc3ccc(F)cc3n12 [Example 17, 8-fluoro-3-methyl-1-o-tolylbenzo[e]imidazo[5,1-c][1,2,4]triazine]
- melting point: 192 to 195 °C
- IC50 [1, 3]: 196 nM
- IC50 [2]: 122 nM

SMILES: COc1ccc(Cl)c(-c2nc(C)c3nnc4ccc(F)cc4n23)c1 [Example 18, 1-(2-chloro-5-methoxyphenyl)-8-fluoro-3-methylbenzo[e]imidazo[5,1-c][1,2,4]triazine]
- melting point: 190 to 192 °C
- IC50 [1, 3]: 183 nM
- IC50 [2]: 20.1 nM

SMILES: Cc1nc(-c2cnccc2Cl)n2c1nnc1ccc(F)cc12 [Example 19, 1-(4-chloropyridin-3-yl)-8-fluoro-3-methylbenzo[e]imidazo[5,1-c][1,2,4]triazine]
- melting point: 141 to 144 °C
- IC50 [1, 3]: 2030 nM
- IC50 [2]: 1360 nM

SMILES: Cc1nc(-c2cc(OC(C)C)ccc2F)n2c1nnc1ccc(F)cc12 [Example 20, 8-fluoro-1-(2-fluoro-5-isopropoxyphenyl)-3-methylbenzo[e]imidazo[5,1-c][1,2,4]triazine]
- melting point: 148 to 150.5 °C
- IC50 [1, 3]: 2290 nM
- IC50 [2]: 473 nM

SMILES: Cc1nc(-c2cc(C(F)(F)F)ccc2F)n2c1nnc1ccc(F)cc12 [Example 21, 8-fluoro-1-(2-fluoro-5-(trifluoromethyl)phenyl)-3-methylbenzo[e]imidazo[5,1-c][1,2,4]triazine]
- melting point: 176 to 179 °C
- IC50 [1, 3]: > 1000 nM
- IC50 [2]: 912 nM

SMILES: CCCCOc1ccc(F)c(-c2nc(C)c3nnc4ccc(F)cc4n23)c1 [Example 22, 1-(5-butoxy-2-fluorophenyl)-8-fluoro-3-methylbenzo[e]imidazo[5,1-c][1,2,4]triazine]
- melting point: 148 to 151 °C
- IC50 [1, 3]: > 500 nM
- IC50 [2]: 37.7 nM

SMILES: CCCOc1ccc(F)c(-c2nc(C)c3nnc4ccc(F)cc4n23)c1 [Example 23, 8-fluoro-1-(2-fluoro-5-propoxyphenyl)-3-methylbenzo[e]imidazo[5,1-c][1,2,4]triazine]
- melting point: 153 to 155 °C
- IC50 [1, 3]: 1540 nM
- IC50 [2]: 59.1 nM

SMILES: CCOc1ccc(F)c(-c2nc(C)c3nnc4ccc(F)cc4n23)c1 [Example 24, 1-(5-ethoxy-2-fluorophenyl)-8-fluoro-3-methylbenzo[e]imidazo[5,1-c][1,2,4]triazine]
- melting point: 189 to 191 °C
- IC50 [1, 3]: > 500 nM
- IC50 [2]: 240 nM

SMILES: Cc1ncccc1-c1nc(C)c2nnc3cc(F)ccc3n12 [Example 25, 7-fluoro-3-methyl-1-(2-methylpyridin-3-yl)benzo[e]imidazo[5,1-c][1,2,4]triazine]
- melting point: 169 to 172 °C
- IC50 [1, 3]: 1490 nM
- IC50 [2]: 341 nM

SMILES: COc1ccccc1-c1nc(C)c2nnc3cc(F)ccc3n12 [Example 26, 7-fluoro-1-(2-methoxyphenyl)-3-methylbenzo[e]imidazo[5,1-c][1,2,4]triazine]
- melting point: 249 to 251 °C
- IC50 [1, 3]: 635 nM
- IC50 [2]: 500 nM

SMILES: Cc1cc(F)ccc1-c1nc(C)c2nnc3cc(F)ccc3n12 [Example 27, 7-fluoro-1-(4-fluoro-2-methylphenyl)-3-methylbenzo[e]imidazo[5,1-c][1,2,4]triazine]
- melting point: 181 to 184 °C
- IC50 [1, 3]: 911 nM
- IC50 [2]: 298 nM

SMILES: Cc1ccccc1-c1nc(C)c2nnc3cc(F)ccc3n12 [Example 28, 7-fluoro-3-methyl-1-o-tolylbenzo[e]imidazo[5,1-c][1,2,4]triazine]
- melting point: 149 to 152 °C
- IC50 [1, 3]: 359 nM
- IC50 [2]: 122 nM

SMILES: COc1ccc(Cl)c(-c2nc(C)c3nnc4cc(F)ccc4n23)c1 [Example 29, 1-(2-chloro-5-methoxyphenyl)-7-fluoro-3-methylbenzo[e]imidazo[5,1-c][1,2,4]triazine]
- melting point: 158 to 161.5 °C
- IC50 [1, 3]: 425 nM
- IC50 [2]: 35.3 nM

SMILES: Cc1nc(-c2cc(C(F)(F)F)ccc2F)n2c1nnc1cc(F)ccc12 [Example 30, 7-fluoro-1-(2-fluoro-5-(trifluoromethyl)phenyl)-3-methylbenzo[e]imidazo[5,1-c][1,2,4]triazine]
- melting point: 205 to 206 °C
- IC50 [1, 3]: > 1000 nM
- IC50 [2]: 1790 nM

SMILES: Cc1nc(-c2cc(OC(C)C)ccc2F)n2c1nnc1cc(F)ccc12 [Example 31, 7-fluoro-1-(2-fluoro-5-isopropoxyphenyl)-3-methylbenzo[e]imidazo[5,1-c][1,2,4]triazine]
- melting point: 133 to 136 °C
- IC50 [1, 3]: 5340 nM
- IC50 [2]: 551 nM

SMILES: COc1ccc2c(c1)nnc1c(C)nc(-c3ccccc3Cl)n12 [Example 34, 1-(2-chlorophenyl)-7-methoxy-3-methylbenzo[e]imidazo[5,1-c][1,2,4]triazine]
- melting point: 163 to 165 °C
- IC50 [1, 3]: 75.2 nM
- IC50 [2]: 26.7 nM

SMILES: COc1ccc2c(c1)nnc1c(C)ncn12 [Example 35, 7-methoxy-3-methylbenzo[e]imidazo[5,1-c][1,2,4]triazine]
- melting point: 212 to 215 °C
- IC50 [1, 3]: > 5000 nM
- IC50 [2]: > 5000 nM

SMILES: COc1ccc2c(c1)nnc1c(C)nc(-c3cccnc3C)n12 [Example 36, 7-methoxy-3-methyl-1(2-methylpyridin-3-yl)benzo[e]imidazo[5,1-c][1,2,4]triazine]
- melting point: 202 to 205 °C
- IC50 [1, 3]: 351 nM
- IC50 [2]: 73.4 nM

SMILES: COc1ccccc1-c1nc(C)c2nnc3ccc(Cl)cc3n12 [Example 39, 8-chloro-1-(2-methoxyphenyl)-3-methylbenzo[e]imidazo[5,1-c][1,2,4]triazine]
- melting point: 179 to 182 °C
- IC50 [1, 3]: 115 nM

SMILES: Cc1nc(CC(C)C)n2c1nnc1cc(F)c(F)cc12 [Example 59, 7,8-difluoro-1-isobutyl-3-methylbenzo[e]imidazo[5,1-c][1,2,4]triazine]
- melting point: 123 to 125.5 °C
